System: MCF-7 cells
Test: MCF-7 cell growth inhibition assay
Assay type: cell-based
Conditions: MCF-7 cells plated in presence of estradiol (1 nM), five days incubation, Presto Blue viability; for % inhibition: at 1 μM; for inhibition at 1 µM: Homo sapiens, MCF7, 120 h
Procedure: MCF-7 Cell Growth Inhibition Assay
MCF-7 cells were plated in 96 well plate in the presence of estradiol (1 nM) and incubated overnight. After 24 hours test compound was added at various concentrations and incubated for five days. On the fifth day, cell viability was evaluated using Presto Blue Cell Viability Reagent. Percentage growth inhibition was calculated as follows: 100−[(O.D. of sample)*100/O.D. of vehicle control] wherein O.D. is optical density.

Compound	% inhibition [%]	inhibition at 1 µM [%]
3-(3-Methoxy phenyl)-4-methyl-2-{4-[(Z)-3-((R)-3-methyl pyrrolidin-1-yl)propenyl]phenyl}-2H-chromen-6-ol [Compound 28]	55.9	
CNC/C=C\c1ccc(C2Oc3ccc(O)cc3C(C)=C2c2cccc(O)c2)cc1 (stereo not shown) [Compound 1]		64.1
CC1=C(c2cccc(O)c2)C(c2ccc(/C=C\CN(C)C)cc2)Oc2ccc(O)cc21 (stereo not shown) [Compound 2]		62.2
CCCCCCCCCCCCNC/C=C\c1ccc(C2Oc3ccc(O)cc3C(C)=C2c2cccc(O)c2)cc1 (stereo not shown) [Compound 3]		68.5
CCCCCCCCCCCCNC/C=C/c1ccc(C2Oc3ccc(O)cc3C(C)=C2c2cccc(O)c2)cc1 (stereo not shown) [Compound 4]		56.2
CC1=C(c2cccc(O)c2)C(c2ccc(/C=C\CNCCN(C)C)cc2)Oc2ccc(O)cc21 (stereo not shown) [Compound 6]		55.5
CC1=C(c2cccc(O)c2)C(c2ccc(/C=C\CNCCCCCCCCCSCCCC(F)(F)C(F)(F)F)cc2)Oc2ccc(O)cc21 (stereo not shown) [Compound 7, 3-(3-hydroxyphenyl)-4-methyl-2-(4-{(Z)-3-[9-(4,4,5,5,5-pentafluoropentylsulfanyl)nonylamino]propenyl}phenyl)-2H-chromen-6-ol]		85.3
CC1=C(c2cccc(O)c2)C(c2ccc(/C=C/CNCCCCCCCCCSCCCC(F)(F)C(F)(F)F)cc2)Oc2ccc(O)cc21 (stereo not shown) [Compound 8]		59.1
CC1=C(c2cccc(O)c2)C(c2ccc(/C=C\CN3CC[C@@H](C)C3)cc2)Oc2ccc(O)cc21 (stereo partly shown) [Compound 9]		79.8
CC1=C(c2cccc(O)c2)C(c2ccc(/C=C/CN3CC[C@@H](C)C3)cc2)Oc2ccc(O)cc21 (stereo partly shown) [Compound 10]		52.3
CC1=C(c2cccc(O)c2)C(c2ccc(/C=C\CN3CCCCC3)cc2)Oc2ccc(O)cc21 (stereo not shown) [Compound 11, 3-(3-hydroxyphenyl)-4-methyl-2-[4-((Z)-3-piperidin-1-ylpropenyl)phenyl]-2H-chromen-6-ol]		65.1
CC1=C(c2cccc(O)c2)C(c2ccc(/C=C/CN3CCCCC3)cc2)Oc2ccc(O)cc21 (stereo not shown) [Compound 12, 3-(3-hydroxyphenyl)-4-methyl-2-[4-((E)-3-piperidin-1-ylpropenyl)phenyl]-2H-chromen-6-ol]		57.6
CC1=C(c2cccc(O)c2)C(c2ccc(/C=C\CN3CCOCC3)cc2)Oc2ccc(O)cc21 (stereo not shown) [Compound 13]		5.5
CC1=C(c2cccc(O)c2)C(c2ccc(/C=C\CN3CCN(C)CC3)cc2)Oc2ccc(O)cc21 (stereo not shown) [Compound 14]		79.1
CC1=C(c2cccc(O)c2)C(c2ccc(/C=C/CN3CCN(C)CC3)cc2)Oc2ccc(O)cc21 (stereo not shown) [Compound 15]		52.2
CC1=C(c2cccc(O)c2)C(c2ccc(/C=C\CN3CCC[C@@H](N)C3)cc2)Oc2ccc(O)cc21 (stereo partly shown) [Compound 16]		56.7
CC1=C(c2cccc(O)c2)C(c2ccc(/C=C\CN3CCN(CCO)CC3)cc2)Oc2ccc(O)cc21 (stereo not shown) [Compound 17]		43.4
CC1=C(c2cccc(OC(=O)C(C)(C)C)c2)C(c2ccc(/C=C\CN3CC[C@@H](C)C3)cc2)Oc2ccc(OC(=O)C(C)(C)C)cc21 (stereo partly drawn) [Compound 19, 2,2-Dimethylpropionic Acid 3-[3-(2,2-dimethylpropionyloxy)phenyl]-4-methyl-2-{4-[(Z)-3-((R)-3-methylpyrrolidin-1-yl)propenyl]phenyl}-2H-chromen-6-yl ester]		29.4
COc1cccc(C2=C(C)c3cc(OC)ccc3OC2c2ccc(/C=C\CN3CC[C@@H](C)C3)cc2)c1 (stereo partly drawn) [Compound 20, (R)-1-((Z)-3-{4-[6-methoxy-3-(3-methoxyphenyl)-4-methyl-2H-chromen-2-yl]phenyl}allyl)-3-methylpyrrolidine]		15.4
CNCC#Cc1ccc(C2Oc3ccc(O)cc3C(C)=C2c2cccc(O)c2)cc1 (stereo not shown) [Compound 21]		60.1
CCCCCCCCCCCCNCC#Cc1ccc(C2Oc3ccc(O)cc3C(C)=C2c2cccc(O)c2)cc1 (stereo not shown) [Compound 22]		29

Compound	% inhibition [%]	inhibition at 1 µM [%]
CNC/C(C)=C/CCC=C(C)C [Compound 23]		36.8
CC1=C(c2cccc(O)c2)C(c2ccc(C#CCN3CC[C@@H](C)C3)cc2)Oc2ccc(O)cc21 (stereo partly shown) [Compound 24]		62.5
CC1=C(c2cccc(O)c2)C(c2ccc(C#CCN3CCCCC3)cc2)Oc2ccc(O)cc21 (stereo not shown) [Compound 25, 3-(3-hydroxyphenyl)-4-methyl-2-[4-(3-piperidin-1-yl-prop-1-ynyl)phenyl]-2H-chromen-6-ol]		42.5
CC1=C(c2cccc(O)c2)C(c2ccc(C#CCN3CCN(C)CC3)cc2)Oc2ccc(O)cc21 (stereo not shown) [Compound 26]		55.2
CC1=C(c2cccc(O)c2)C(c2ccc(C#CCCN3CCN(C)CC3)cc2)Oc2ccc(O)cc21 (stereo not shown) [Compound 27]		28.8
CCCNC1CCN(C)C1 (stereo not shown) [Compound 31]		19.9
CCCNC1CCN(C)C1 (stereo not shown) [Compound 32]	27.4	
CC1=C(c2cccc(O)c2)C(c2ccc(/C=C/CN3CCSCC3)cc2)Oc2ccc(O)cc21 (stereo not shown) [Compound 33]		22.8
CC1=C(c2cccc(O)c2)C(c2ccc(/C=C\CN3CCC(C)CC3)cc2)Oc2ccc(O)cc21 (stereo not shown) [Compound 34]		35
CCCCCCCCCNC/C=C/c1ccc(C2Oc3ccc(O)cc3C(C)=C2c2cccc(O)c2)cc1 (stereo not shown) [Compound 35]		68.6
CCCCCCCCCNC/C=C\c1ccc(C2Oc3ccc(O)cc3C(C)=C2c2cccc(O)c2)cc1 (stereo not shown) [Compound 37]	57.2	
CC1=C(c2cccc(O)c2)C(c2ccc(/C=C\CNCCCCCCCCCF)cc2)Oc2ccc(O)cc21 (stereo not shown) [Compound 38]		49.9
CC1=C(c2cccc(O)c2)C(c2ccc(/C=C/CNCCCCCCCCCF)cc2)Oc2ccc(O)cc21 (stereo not shown) [Compound 39, 2-{4-[(E)-3-(9-Fluorononylamino)propenyl]phenyl}-3-(3-hydroxyphenyl)-4-methyl-2H-chromen-6-ol]		89.7
CC1=C(c2cccc(O)c2)C(c2ccc(/C=C\C(C)N3CCCC3)cc2)Oc2ccc(O)cc21 (stereo not shown) [Compound 40]		29.3
CC1=C(c2cccc(O)c2)C(c2ccc(/C=C/CNCCCCCCCCCCF)cc2)Oc2ccc(O)cc21 (stereo not shown) [Compound 41]		77.6
CC1=C(c2cccc(O)c2)C(c2ccc(C#CCNCCCCCCCCCF)cc2)Oc2ccc(O)cc21 (stereo not shown) [Compound 42]		62
CC1=C(c2cccc(O)c2)C(c2ccc(/C=C\CNCCCCCCCCCCF)cc2)Oc2ccc(O)cc21 (stereo not shown) [Compound 43]		47.9
CC1=C(c2cccc(O)c2)C(c2ccc(/C=C/CNCCCCCCCCC(F)F)cc2)Oc2ccc(O)cc21 (stereo not shown) [Compound 44]		67.2
CC1=C(c2cccc(O)c2)C(c2ccc(/C=C/CN(C)CCCCCCCCCF)cc2)Oc2ccc(O)cc21 (stereo not shown) [Compound 45]	71.4	
CC1=C(c2cccc(O)c2)C(c2ccc(/C=C\CNCCCCCCCCC(F)F)cc2)Oc2ccc(O)cc21 (stereo not shown) [Compound 46]		88.6
COc1cccc(C2=C(C)c3cc(O)ccc3OC2c2ccc(/C=C/CNCCCCCCCCCF)cc2)c1 (stereo not shown) [Compound 47]		67.4

Compound	% inhibition [%]	inhibition at 1 µM [%]
CC1=C(c2cccc(O)c2)C(c2ccc(/C=C\CN(C)CCCCCCCCCF)cc2)Oc2ccc(O)cc21 (stereo not shown) [Compound 48]		58.9
CC1=C(c2cccc(O)c2)C(c2ccc(/C=C/CNCCCCCCCCF)cc2)Oc2ccc(O)cc21 (stereo not shown) [Compound 49]		67.3
CC1=C(c2cccc(O)c2)C(c2ccc(/C=C\CNCCCCCCCCF)cc2)Oc2ccc(O)cc21 (stereo not shown) [Compound 50]		57.3
CC1=C(c2cccc(O)c2)C(c2ccc(C#CCNCCCCCCCCF)cc2)Oc2ccc(O)cc21 (stereo not shown) [Compound 51]		61.1
CC1=C(c2cccc(O)c2)C(c2ccc(C#CCNCCCCCCCCCCF)cc2)Oc2ccc(O)cc21 (stereo not shown) [Compound 52]		74.3
CC1=C(c2cccc(O)c2)C(c2ccc(C#CCN(C)CCCCCCCCCF)cc2)Oc2ccc(O)cc21 (stereo not shown) [Compound 53]		38.6
CC1=C(c2cccc(O)c2)C(c2ccc(C#CCNCCCCCCCCC(F)F)cc2)Oc2ccc(O)cc21 (stereo not shown) [Compound 54]		67.5
CC1=C(c2cccc(O)c2)C(c2ccc(/C=C\CN3CC[C@@H](CF)C3)cc2)Oc2ccc(O)cc21 (stereo partly shown) [Compound 55]	67.1	
CC1=C(c2cccc(O)c2)C(c2ccc(C#CCN3CCC(F)(F)C3)cc2)Oc2ccc(O)cc21 (stereo not shown) [Compound 56]		44.9
CC1=C(c2cccc(O)c2)C(c2ccc(/C=C\CN3CCC(F)(F)C3)cc2)Oc2ccc(O)cc21 (stereo not shown) [Compound 57]		24.3
CC1=C(c2cccc(O)c2)C(c2ccc(/C=C/CN3CCC(F)(F)C3)cc2)Oc2ccc(O)cc21 (stereo not shown) [Compound 58]		37.9
CC1=C(c2cccc(O)c2)C(c2ccc(/C=C/CN3CC[C@@H](CF)C3)cc2)Oc2ccc(O)cc21 (stereo partly shown) [Compound 59]		73.5
CC1=C(c2cccc(O)c2)C(c2ccc(/C=C/CN3CC[C@@H](CO)C3)cc2)Oc2ccc(O)cc21 (stereo partly shown) [Compound 60]		55
CC1=C(c2cccc(O)c2)C(c2ccc(C#CCNCCCCOCCCCF)cc2)Oc2ccc(O)cc21 (stereo not shown) [Compound 61]		39.3
CC1=C(c2cccc(O)c2)C(c2ccc(/C=C\CNCCCCOCCCCF)cc2)Oc2ccc(O)cc21 (stereo not shown) [Compound 62]		53.1
CC1=C(c2cccc(O)c2)C(c2ccc(/C=C/CNCCCCOCCCCF)cc2)Oc2ccc(O)cc21 (stereo not shown) [Compound 63]		41.8
CC1=C(c2cccc(O)c2)C(c2ccc(C#CCN3CC[C@@H](CF)C3)cc2)Oc2ccc(O)cc21 (stereo partly shown) [Compound 64]		47.2
CC1=C(c2cccc(O)c2)C(c2ccc(/C=C/CN3CCC(C(F)(F)F)C3)cc2)Oc2ccc(O)cc21 (stereo not shown) [Compound 65]		55.4
CC1=C(c2cccc(O)c2)C(c2ccc(/C=C\CN3CCC(C(F)(F)F)C3)cc2)Oc2ccc(O)cc21 (stereo not shown) [Compound 66]		12.9
